In patent publication US20240425496A1, “AZETIDINYL PYRIMIDINES AND USES THEREOF” (Aerie Pharmaceuticals, Inc., priority 2021, published 2024):

Legend:
Assay type in all cases: biochemical
[1] = target: JAK2 (Homo sapiens (Human), UniProt O60674); assay: JAK kinase assay (KINASE-GLO luminescent), JAK2 enzyme; conditions: JAK2 enzyme 10 nM, Abl peptide substrate
Method: All compounds were initially prepared as 10 mM stocks in anhydrous dimethylsulfoxide (DMSO). A 20 μL aliquot of the 10 mM solutions was transferred to individual wells in column 1 of a 96-well polypropylene microtiter plate (Corning #3363) and diluted with DMSO to give a final compound concentration of 4 mM. Test compounds were then serially diluted 1:5 in DMSO for an 11-point concentration response and further diluted in the assay buffer bringing all compound concentrations to a final range of 100 μM to […] in 2.5% DMSO. The assay was performed in white 96-well, flat-bottom, half-area, non-binding assay plate (Corning #3642) in assay buffer consisting of 20 mM HEPES (pH 7.5), 10 mM MgCl2*6H2O, 100 μM sodium orthovanadate, 0.05% CHAPS and 0.1% bovine serum albumin. A 10 μL aliquot of compound from each well of the intermediate dilution plate and 20 μL of a 2× substrate/enzyme solution containing acceptor substrate (800 nM RSK2 peptide […] (SEQ ID NO: 1)), ROCK2 enzyme (10 nM), or ROCK1 enzyme, and 1,4-Dithiothreitol (DTT, 2 uM) were added to all wells. The reaction was initiated by the addition of 10 μL of 4× stock solution ATP (2 μM). Reactions were thoroughly mixed manually, covered, and allowed to incubate at room temperature for 75 min. Protein kinase activity was quantitated using Promega's KINASE-GLO™ luminescent Kinase Assay Kit according to the manufacturer's directions. ATP concentrations remaining in Test wells following the termination of the enzymatic reaction were compared against control wells containing equivalent amounts of DMSO containing no inhibitor (CTRL). […] Percent of Control (POC) values were determined for each concentration of compound tested according to the equation: […]
IC50 values were calculated using the following 4-parameter logistic curve-fitting algorithm:
Compounds were prepared in the exact same manner as described in the ROCK Kinase Assay with the exception to the substrate and enzyme. […]

[2] = target: TYK2 (Homo sapiens (Human), UniProt P29597); assay: JAK kinase assay (KINASE-GLO luminescent), TYK2 enzyme; conditions: TYK2 enzyme 10 nM, Abl peptide substrate
Sequence of TYK2 (P29597 whole entry, species assumed): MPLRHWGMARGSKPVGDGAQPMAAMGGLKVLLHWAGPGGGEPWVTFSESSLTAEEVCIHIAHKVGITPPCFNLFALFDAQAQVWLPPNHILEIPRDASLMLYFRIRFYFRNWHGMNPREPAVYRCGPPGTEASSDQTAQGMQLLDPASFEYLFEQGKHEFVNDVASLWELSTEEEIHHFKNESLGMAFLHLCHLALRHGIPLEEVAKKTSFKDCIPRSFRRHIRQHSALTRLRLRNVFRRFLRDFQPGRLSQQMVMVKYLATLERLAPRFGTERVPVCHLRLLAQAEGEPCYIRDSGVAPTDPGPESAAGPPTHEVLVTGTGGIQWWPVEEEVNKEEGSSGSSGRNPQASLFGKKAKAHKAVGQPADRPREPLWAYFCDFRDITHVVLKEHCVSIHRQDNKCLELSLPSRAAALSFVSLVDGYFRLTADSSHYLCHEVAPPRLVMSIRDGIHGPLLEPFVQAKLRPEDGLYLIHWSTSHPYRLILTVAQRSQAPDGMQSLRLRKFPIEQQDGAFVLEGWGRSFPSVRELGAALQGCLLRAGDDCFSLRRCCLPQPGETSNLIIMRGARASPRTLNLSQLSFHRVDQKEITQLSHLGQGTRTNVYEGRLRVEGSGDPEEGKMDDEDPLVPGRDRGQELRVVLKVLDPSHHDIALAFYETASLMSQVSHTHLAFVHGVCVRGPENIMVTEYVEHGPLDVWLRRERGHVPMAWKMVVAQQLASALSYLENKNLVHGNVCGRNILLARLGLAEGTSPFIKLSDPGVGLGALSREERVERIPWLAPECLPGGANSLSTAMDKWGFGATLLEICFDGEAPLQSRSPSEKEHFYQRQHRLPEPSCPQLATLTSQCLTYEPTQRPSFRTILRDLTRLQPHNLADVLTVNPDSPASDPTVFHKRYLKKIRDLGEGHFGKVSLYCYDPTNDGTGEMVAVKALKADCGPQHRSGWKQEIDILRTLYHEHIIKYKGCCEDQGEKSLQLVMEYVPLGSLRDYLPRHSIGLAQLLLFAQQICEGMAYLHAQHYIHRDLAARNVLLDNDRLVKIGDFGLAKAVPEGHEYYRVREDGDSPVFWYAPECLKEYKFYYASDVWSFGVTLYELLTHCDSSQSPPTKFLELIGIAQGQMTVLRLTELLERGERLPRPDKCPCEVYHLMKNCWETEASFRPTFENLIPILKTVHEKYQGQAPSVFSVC
Outline: (§1)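 Kinase-Glo luminescence measures ATP remaining after 75 min at room temperature; ATP 2 μM in 4× stock. 11-point 1:5 dilutions, 2.5% DMSO final. Percent of DMSO control per concentration, IC50 by 4-parameter logistic fit.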

[3] = target: JAK1 (Homo sapiens (Human), UniProt P23458); assay: JAK kinase assay (KINASE-GLO luminescent), JAK1 enzyme; conditions: JAK1 enzyme 10 nM, Abl peptide substrate
Sequence of JAK1 (P23458 whole entry, species assumed): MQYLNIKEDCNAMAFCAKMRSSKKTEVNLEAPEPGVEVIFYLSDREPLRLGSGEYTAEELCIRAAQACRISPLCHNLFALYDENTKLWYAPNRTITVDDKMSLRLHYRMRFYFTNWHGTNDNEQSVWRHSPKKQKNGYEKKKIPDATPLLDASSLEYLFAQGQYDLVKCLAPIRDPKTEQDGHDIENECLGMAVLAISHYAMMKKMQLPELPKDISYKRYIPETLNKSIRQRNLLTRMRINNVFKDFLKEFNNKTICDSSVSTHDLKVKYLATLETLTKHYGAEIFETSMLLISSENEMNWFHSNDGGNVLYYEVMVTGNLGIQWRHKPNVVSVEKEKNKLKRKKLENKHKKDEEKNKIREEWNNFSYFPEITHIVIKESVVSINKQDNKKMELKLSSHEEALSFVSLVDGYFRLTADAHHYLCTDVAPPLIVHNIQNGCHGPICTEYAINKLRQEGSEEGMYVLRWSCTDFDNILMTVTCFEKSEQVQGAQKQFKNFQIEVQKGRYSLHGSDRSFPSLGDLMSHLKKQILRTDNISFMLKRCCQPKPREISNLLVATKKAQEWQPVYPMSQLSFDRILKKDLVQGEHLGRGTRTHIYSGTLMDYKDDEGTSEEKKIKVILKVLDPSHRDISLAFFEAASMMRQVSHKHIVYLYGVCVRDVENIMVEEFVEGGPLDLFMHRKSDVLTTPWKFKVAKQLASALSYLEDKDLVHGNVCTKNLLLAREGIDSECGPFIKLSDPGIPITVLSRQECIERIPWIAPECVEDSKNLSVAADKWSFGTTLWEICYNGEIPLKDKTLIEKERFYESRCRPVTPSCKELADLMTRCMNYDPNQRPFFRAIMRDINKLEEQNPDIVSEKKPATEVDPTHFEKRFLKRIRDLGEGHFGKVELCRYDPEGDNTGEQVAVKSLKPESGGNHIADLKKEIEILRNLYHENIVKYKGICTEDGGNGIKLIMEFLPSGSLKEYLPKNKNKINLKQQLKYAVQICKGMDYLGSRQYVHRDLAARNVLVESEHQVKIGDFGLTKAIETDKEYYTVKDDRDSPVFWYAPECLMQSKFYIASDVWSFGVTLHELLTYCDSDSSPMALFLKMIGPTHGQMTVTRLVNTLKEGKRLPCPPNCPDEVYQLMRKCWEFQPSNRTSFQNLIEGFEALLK
Outline: as §1

Sequence of JAK2 (O60674 whole entry, species assumed): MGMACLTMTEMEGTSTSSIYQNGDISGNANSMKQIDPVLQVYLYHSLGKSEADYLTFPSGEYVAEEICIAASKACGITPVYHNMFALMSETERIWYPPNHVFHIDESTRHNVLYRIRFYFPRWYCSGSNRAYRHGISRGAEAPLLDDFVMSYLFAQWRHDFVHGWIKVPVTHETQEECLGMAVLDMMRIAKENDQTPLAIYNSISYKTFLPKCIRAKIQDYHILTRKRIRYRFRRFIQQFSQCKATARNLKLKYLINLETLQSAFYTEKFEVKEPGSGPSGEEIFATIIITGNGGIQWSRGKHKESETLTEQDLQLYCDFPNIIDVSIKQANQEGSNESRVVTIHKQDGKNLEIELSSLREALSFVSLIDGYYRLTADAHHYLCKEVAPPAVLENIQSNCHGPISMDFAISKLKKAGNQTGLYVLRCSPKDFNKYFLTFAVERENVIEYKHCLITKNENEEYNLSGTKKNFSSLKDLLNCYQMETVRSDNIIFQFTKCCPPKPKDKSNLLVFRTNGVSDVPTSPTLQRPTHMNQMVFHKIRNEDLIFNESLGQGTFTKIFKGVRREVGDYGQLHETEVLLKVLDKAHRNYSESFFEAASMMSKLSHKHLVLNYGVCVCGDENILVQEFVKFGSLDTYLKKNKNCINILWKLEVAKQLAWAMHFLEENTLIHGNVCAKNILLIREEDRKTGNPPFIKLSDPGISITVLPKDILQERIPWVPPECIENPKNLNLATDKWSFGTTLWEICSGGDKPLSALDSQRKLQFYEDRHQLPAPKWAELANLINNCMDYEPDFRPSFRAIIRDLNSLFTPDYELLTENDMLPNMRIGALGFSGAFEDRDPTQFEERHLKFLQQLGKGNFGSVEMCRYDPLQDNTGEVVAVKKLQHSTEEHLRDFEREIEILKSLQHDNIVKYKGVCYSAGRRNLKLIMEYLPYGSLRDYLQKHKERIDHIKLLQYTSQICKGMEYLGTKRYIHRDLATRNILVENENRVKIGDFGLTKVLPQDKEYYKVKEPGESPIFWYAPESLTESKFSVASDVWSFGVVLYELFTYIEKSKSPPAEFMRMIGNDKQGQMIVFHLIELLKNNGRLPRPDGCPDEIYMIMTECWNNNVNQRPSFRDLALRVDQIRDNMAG

SMILES | IC50 [1] | IC50 [2] | IC50 [3]
Cc1cc(Nc2ncc(C)c(N3CC(C#N)C3)n2)sn1 [E7] | < 50 nM | – | –
Cc1cc(Nc2ncc(C)c(N3CC(CC#N)(N4CCN(C)[C@H](C)C4)C3)n2)sn1 [E52C] | < 20 nM | < 10 nM | –
Cc1cnc(Nc2cccnc2)nc1N1CC(CC#N)(N2CCN3CCCC[C@H]3C2)C1 [E216-T] | – | < 50 nM | < 50 nM
Cc1cnc(Nc2ccccc2)nc1N1CC(CC#N)(N2CCN(C)CC2)C1 [E216-V] | – | < 50 nM | < 100 nM
Cc1cnc(Nc2ccc3c(c2)CN(C)C3)nc1N1CC(CC#N)(N2CCN3C[C@H](F)C[C@H]3C2)C1 [E216] | – | < 10 nM | < 10 nM
Cc1cnc(Nc2cnn(C)c2)nc1C1CC(C)(NC(=O)[C@@H]2CC2(F)F)C1 (some centres unmarked) [E279] | – | < 10 nM | < 5 nM
Cc1cc(Nc2ncc(C)c(N3CC(C)(CNC(=O)C4CN(C)C4)C3)n2)sn1 [E280] | – | < 400 nM | < 400 nM
Cc1cc(Nc2ncc(C)c(N3CC(CC#N)(NC(=O)Cc4cccnc4)C3)n2)sn1 [E281] | – | < 50 nM | < 100 nM
Cc1cc(Nc2ncc(C)c(N3CC(C)(CNC(=O)C4CN(C(=O)OC(C)(C)C)CC4(F)F)C3)n2)sn1 (centres unmarked) [E283] | – | < 100 nM | < 100 nM
Cc1cc(Nc2ncc(C)c(N3CC(C)(CNC(=O)C4CCN(C(=O)OC(C)(C)C)CC4(F)F)C3)n2)sn1 (centres unmarked) [E284] | – | < 200 nM | < 100 nM
Cc1cc(Nc2ncc(C)c(N3CC(C)(CNC(=O)C4CCNCC4(F)F)C3)n2)sn1 (centres unmarked) [E285] | – | < 150 nM | < 100 nM
Cc1cc(Nc2ncc(C)c(N3CC(C)(CNC(=O)C4CNCC4(F)F)C3)n2)sn1 (centres unmarked) [E286] | – | < 50 nM | < 50 nM
COc1ccc(CNC2(CC#N)CN(c3nc(Nc4cc(C)ns4)ncc3C)C2)cc1 [E288, 2-(3-((4-methoxybenzyl)amino)-1-(5-methyl-2-((3-methylisothiazol-5-yl)amino)pyrimidin-4-yl)azetidin-3-yl)acetonitrile] | – | < 50 nM | < 50 nM
Cc1cc(Nc2ncc(C)c(N3CC(N)(CC#N)C3)n2)sn1 [E289, 2-(3-amino-1-(5-methyl-2-((3-methylisothiazol-5-yl)amino)pyrimidin-4-yl)azetidin-3-yl)acetonitrile] | – | < 100 nM | < 150 nM
Cc1cc(Nc2ncc(C)c(N3CC(CC#N)(NC(=O)[C@@H]4CC4(F)F)C3)n2)sn1 [E290, (S)—N-(3-(cyanomethyl)-1-(5-methyl-2-((3-methylisothiazol-5-yl)amino)pyrimidin-4-yl)azetidin-3-yl)-2,2-difluorocyclopropane-1-carboxamide] | – | < 10 nM | < 10 nM
Cc1cc(Nc2ncc(C)c(N3CC(CC#N)(NS(C)(=O)=O)C3)n2)sn1 [E291, N-(3-(cyanomethyl)-1-(5-methyl-2-((3-methylisothiazol-5-yl)amino)pyrimidin-4-yl)azetidin-3-yl)methanesulfonamide] | – | < 10 nM | < 20 nM
Cc1cc(N(c2ncc(C)c(N3CC(CC#N)(NS(C)(=O)=O)C3)n2)S(C)(=O)=O)sn1 [E292] | – | < 1000 nM | < 5000 nM
Cc1cc(Nc2ncc(C)c(N3CC(CC#N)(NC(=O)NCC(F)(F)F)C3)n2)sn1 [E293, 1-(3-(cyanomethyl)-1-(5-methyl-2-((3-methylisothiazol-5-yl)amino)pyrimidin-4-yl)azetidin-3-yl)-3-(2,2,2-trifluoroethyl)urea] | – | < 20 nM | < 20 nM
Cc1cc(Nc2ncc(C)c(N3CC(CC#N)(NCc4ccc(F)cc4F)C3)n2)sn1 [E295, 2-(3-((2,4-difluorobenzyl)amino)-1-(5-methyl-2-((3-methylisothiazol-5-yl)amino)pyrimidin-4-yl)azetidin-3-yl)acetonitrile] | – | < 10 nM | < 20 nM
Cc1cc(Nc2ncc(C)c(N3CC(CC#N)(NC(=O)c4ccccn4)C3)n2)sn1 [E296] | – | < 20 nM | < 20 nM
Cc1cc(Nc2ncc(C)c(N3CC(CC#N)(NC(=O)C4CCCC4)C3)n2)sn1 [E297] | – | < 20 nM | < 50 nM
Cc1cc(Nc2ncc(C)c(N3CC(CC#N)(NC(=O)c4ccncc4)C3)n2)sn1 [E298] | – | < 50 nM | < 50 nM
Cc1cc(Nc2ncc(C)c(N3CC(CC#N)(NC(=O)Cc4ccccc4F)C3)n2)sn1 [E300] | – | < 20 nM | < 20 nM
CCS(=O)(=O)NC1(CC#N)CN(c2nc(Nc3cc(C)ns3)ncc2C)C1 [E301] | – | < 20 nM | < 50 nM
CCS(=O)(=O)NC1(CC#N)CN(c2nc(N(c3cc(C)ns3)S(=O)(=O)CC)ncc2C)C1 [E302] | – | < 1000 nM | < 5000 nM
Cc1cc(Nc2ncc(C)c(N3CC(CC#N)(NC(=O)c4cccnc4)C3)n2)sn1 [E303] | – | < 30 nM | < 20 nM

SMILES | IC50 [1] | IC50 [2] | IC50 [3]
Cc1cc(Nc2ncc(C)c(N3CC(CC#N)(NC(=O)c4cccc(F)c4)C3)n2)sn1 [E304] | – | < 10 nM | < 10 nM
Cc1cnc(Nc2cnn(C)c2)nc1N1CC(CC#N)(N[C@H]2CC[C@H](NC(=O)OC(C)(C)C)C2)C1 [E305] | – | > 2000 nM | > 1500 nM
Cc1cnc(Nc2cnn(C)c2)nc1N1CC(CC#N)(N[C@H]2CC[C@H](NS(C)(=O)=O)C2)C1 [E306] | – | < 60 nM | < 120 nM
Cc1cnc(Nc2cnn(C)c2)nc1N1CC(C)(NC(=O)c2cccc(F)c2)C1 [E307] | – | < 100 nM | < 20 nM
Cc1cnc(Nc2ccc(CN(C)C)cc2)nc1N1CC(C)(NC(=O)c2cccc(F)c2)C1 [E308] | – | < 50 nM | < 100 nM
Cc1cc(Nc2ncc(C)c(N3CC(C)(NC(=O)c4cccc(F)c4)C3)n2)sn1 [E309] | – | < 20 nM | < 10 nM
Cc1cnc(Nc2cccc(CN(C)C)c2)nc1N1CC(C)(NC(=O)c2cccc(F)c2)C1 [E310] | – | < 50 nM | < 20 nM
Cc1cnc(Nc2ccc(N3CCOCC3)cc2)nc1N1CC(C)(NC(=O)c2cccc(F)c2)C1 [E311] | – | < 50 nM | < 50 nM
Cc1cc(Nc2ncc(C)c(N3CC(CC#N)(NC(=O)c4cccc(F)c4F)C3)n2)sn1 [E312] | – | < 10 nM | < 10 nM
Cc1cc(Nc2ncc(C)c(N3CC(CC#N)(NC(=O)c4ccc(F)c(F)c4)C3)n2)sn1 [E313] | – | < 50 nM | < 20 nM
Cc1cc(Nc2ncc(C)c(N3CC(CC#N)(NC(=O)c4cccc(Cl)c4)C3)n2)sn1 [E314] | – | < 10 nM | < 10 nM
Cc1cc(Nc2ncc(C)c(N3CC(CC#N)(NC(=O)c4cccc(C(F)(F)F)c4)C3)n2)sn1 [E315] | – | < 20 nM | < 10 nM
Cc1cc(Nc2ncc(C)c(N3CC(CC#N)(NC(=O)c4cc(F)cc(F)c4C)C3)n2)sn1 [E317] | – | < 20 nM | < 30 nM
CCC1(NC(=O)c2cccc(F)c2)CN(c2nc(Nc3cc(C)ns3)ncc2C)C1 [E318B] | – | < 10 nM | < 10 nM
CCC1(NC(=O)c2cccc(F)c2)CN(c2nc(Nc3cnn(C)c3)ncc2C)C1 [E318C] | – | < 50 nM | < 10 nM
Cc1cc(Nc2ncc(C)c(N3CC(CC#N)(NC(=O)c4cccc(F)c4C)C3)n2)sn1 [E318] | – | < 30 nM | < 50 nM
Cc1cc(Nc2ncc(C)c(N3CC(CC#N)(NCc4cccc(Cl)c4)C3)n2)sn1 [E350] | – | < 10 nM | < 10 nM
Cc1cnc(Nc2cnn(C)c2)nc1N1CC(CC#N)(NCc2cccc(Cl)c2)C1 [E351] | – | < 50 nM | < 20 nM
Cc1cc(Nc2ncc(C)c(N3CC(CC#N)(NC(C)c4cccc(F)c4)C3)n2)sn1 (centres unmarked) [E352] | – | < 50 nM | < 100 nM
Cc1cc(Nc2ncc(C)c(N3CC(CC#N)(NC(=O)c4cncc(F)c4)C3)n2)sn1 [E353] | – | < 50 nM | < 20 nM
Cc1cc(Nc2ncc(C)c(N3CC(CC#N)(NC(=O)C4CCCCC4(F)F)C3)n2)sn1 (centres unmarked) [E354] | – | < 50 nM | < 50 nM
Cc1cc(Nc2ncc(C)c(N3CC(CC#N)(NC(=O)C4CCCC(F)(F)C4)C3)n2)sn1 (centres unmarked) [E356] | – | < 10 nM | < 10 nM
Cc1cc(Nc2ncc(C)c(N3CC(CC#N)(NCC4CC4(F)F)C3)n2)sn1 (centres unmarked) [E357] | – | < 10 nM | < 20 nM
Cc1cc(Nc2ncc(C)c(N3CC(CC#N)(NCC4CCC(F)(F)C4)C3)n2)sn1 (centres unmarked) [E358] | – | < 10 nM | < 10 nM
Cc1cc(Nc2ncc(C)c(N3CC(CC#N)(NCC4CCC(F)C4)C3)n2)sn1 (centres unmarked) [E359] | – | < 10 nM | < 10 nM
